What was measured:
[1] = Specific area by BET method; type: physicochemical
Procedure: The specific area was determined by the BET method.

[2] = Particle size distribution by laser diffraction in wet dispersion; type: physicochemical; conditions: dispersant water
Procedure: The analysis of the particle size distribution of each batch was performed by laser diffraction method in wet dispersion (Helos sensor, Sympatec with the wet disperser Quixel). The dispersant used was water. The full particle dispersion was ensured by ultrasonication.

ovulation = experiment: Contraceptive efficiency trial, 24/4 regimen (ovulation inhibition, Example 5, Part 3); type: in vivo, human
Procedure: The study was an open-label monocentric trial. […] Excluded were subjects with a (suspected) pregnancy, active or past thromboembolic disorder, present or past severe hepatic disease, carcinoma of the endometrium or other known or suspected estrogen-dependent neoplasia, undiagnosed vaginal bleeding, use of liver enzyme-inducing drugs and other drugs.
The subjects received daily treatment with tablets containing about 4 mg DRSP with a 24/4 regimen during two treatment cycles. The subjects started treatment on the 1st day of the cycle (i.e., the first day of onset of vaginal bleeding) following the screening visit. […]
Blood sampling for hormonal determination (progesterone, 17-beta-estradiol, FSH and LH) was performed every 3 days from day 1 to day 84 and assessments of weight, blood pressure and heart rate were performed at each visit. Serum progesterone, 17-beta-estradiol, FSH and LH concentrations were measured with validated commercial in vitro diagnostic kits (V1DAS, ELFA Biomerieux). […]
The occurrence of ovulation during treatment was determined on the basis of serum progesterone concentration, using the criteria of Landgren et al. Thus, an ovulation was judged to have occurred in case of progesterone concentrations >5.04 ng/ml-sustained for at least 2 consecutive progesterone samples.

For `C[C@]12CCC(=O)C=C1[C@@H]1C[C@@H]1[C@H]1[C@@H]3[C@@H]4C[C@@H]4[C@@]4(CCC(=O)O4)[C@@]3(C)CC[C@@H]12` [PR100311, Drospirenone], the Specific area [1] was 0.66 m^2/g.

For `C[C@]12CCC(=O)C=C1[C@@H]1C[C@@H]1[C@H]1[C@@H]3[C@@H]4C[C@@H]4[C@@]4(CCC(=O)O4)[C@@]3(C)CC[C@@H]12` [compound 080204, Drospirenone], the Specific area [1] was 0.83 m^2/g, the d10 [2] was 4.4 μm and the d50 [2] was 13.1 μm. It also gave a d90 [2] of 24.8 μm and a d99 [2] of 34.5 μm.

`C[C@]12CCC(=O)C=C1[C@@H]1C[C@@H]1[C@H]1[C@@H]3[C@@H]4C[C@@H]4[C@@]4(CCC(=O)O4)[C@@]3(C)CC[C@@H]12` [compound 080257, Drospirenone] gave a Specific area [1] of 0.77 m^2/g, a d10 [2] of 5.3 μm and a d50 [2] of 12.6 μm. For the same compound, the d90 [2] was 23.4 μm and the d99 [2] was 35.3 μm.

`C[C@]12CCC(=O)C=C1[C@@H]1C[C@@H]1[C@H]1[C@@H]3[C@@H]4C[C@@H]4[C@@]4(CCC(=O)O4)[C@@]3(C)CC[C@@H]12` [compound 080169, Drospirenone] showed a Specific area [1] of 0.45 m^2/g, a d10 [2] of 2.9 μm and a d50 [2] of 24.5 μm. The d90 [2] was 37.1 μm and the d99 [2] was 48.9 μm.

`C[C@]12CCC(=O)C=C1[C@@H]1C[C@@H]1[C@H]1[C@@H]3[C@@H]4C[C@@H]4[C@@]4(CCC(=O)O4)[C@@]3(C)CC[C@@H]12` [compound 080053, Drospirenone] showed a Specific area [1] of 0.63 m^2/g, a d10 [2] of 7.2 μm and a d50 [2] of 19.8 μm. It also gave a d90 [2] of 34.2 μm and a d99 [2] of 44.8 μm.

For `C[C@]12CCC(=O)C=C1[C@@H]1C[C@@H]1[C@H]1[C@@H]3[C@@H]4C[C@@H]4[C@@]4(CCC(=O)O4)[C@@]3(C)CC[C@@H]12` [DRSP, 6b,7b:15b,16b-Dimethylen-3-oxo-17a-pregn-4-ene-21,17-carbolactone], the “ovulation during the 2 treatment cycles” value (ovulation; 24/4 regimen, ovulation = progesterone >5.04 ng/ml in 2 consecutive samples) was “no ovulation occurred” and the “women with progesterone above 5.04 ng/mL (return of ovulation) in 28-day follow-up cycle” value (ovulation; upon cessation of treatment) was 17 out of 20.

Work on `C[C@]12CCC(=O)C=C1[C@@H]1C[C@@H]1[C@H]1[C@@H]3[C@@H]4C[C@@H]4[C@@]4(CCC(=O)O4)[C@@]3(C)CC[C@@H]12` [PR100003, Drospirenone] yielded a Specific area [1] of 0.26 m^2/g, a d10 [2] of 5.9 μm and a d50 [2] of 22.4 μm. It also gave a d90 [2] of 37.4 μm and a d99 [2] of 56.1 μm.

Reference: US9603860B2, “Pharmaceutical compositions comprising active drugs, contraceptive kits comprising active drugs, and methods of administering the same” (LABORATORIOS LEON FARMA SA, priority 2010, dated 2017)
